The results in this text go back to patent US12636284B2, “Compositions for use in the prevention and/or treatment of intellectual disability and neurodegenerative diseases in a subject with down syndrome” (UNIVERSITA' DEGLI STUDI DI ROMA “LA SAPIENZA”, priority 2021, dated 2026).

Data set [1] relates to spontaneous neurotransmitter release in Eu mice. Kind of data set: Patch-clamp electrophysiology, CA1 neurons of hippocampal sections, euploid mice. The data set is classed as in vivo, mouse. To be noted: after 21 days intranasal treatment. From the text: The brain sections containing the hippocampus were obtained from mice belonging to the four experimental groups (Eu Veh, Eu SITA, Ts2 Veh and Ts2 SITA) at 9 months of age after being euthanized by an overdose of isofluorane. Brains were quickly removed and placed in an ice-cold cutting solution containing the following (in mM): 124 NaCl, 3.2 KCl, 1 NaH2PO4, 2 MgCl2, 1 CaCl2), 26 NaHCO3, 10 glucose, 2 Na-pyruvate and 0.6 ascorbic acid, pH 7.4, 95% O2/5% CO2. The brain sections containing the hippocampus ([…]) were cut using a vibratome (VT1000S; Leica Microsystems) and immediately transferred to an incubation chamber filled with ACSF containing the following (in mM): 124 NaCl, 3.2 KCl, 1 NaH2PO4, 1 MgCl2, 2 CaCl2, 26 NaHCO3 and 10 glucose, pH 7.4, 95% O2/5% CO2. Brain sections were allowed to recover at 32° C. for 1 hour before being equilibrated to room temperature. For electrophysiological recordings, brain sections were transferred to a recording chamber constantly perfused with heated ACSF (32° C.) and bubbled with 95% O2/5% CO2. Subsequently, the slices were used for electrophysiological recordings. All electrophysiological recordings were performed using the patch-clamp technique in the whole-cell configuration. […] Membrane capacity and resistance were assessed in the same neurons. […]
(In general: The patch-clamp technique gives a direct electrical read-out from membranes.)

Data set [2] has as its system DYRK1A protein. Kind of data set: DYRK1A protein levels in primary hippocampal neurons isolated from Ts2Cje mice. The data set is classed as cell-based, mouse. As to conditions: 1, 5, 10 μM for 24 hours, vs untreated Ts2Cje. The protocol: For Western blots, 20 μg of proteins from the hippocampus of mice belonging to the four experimental groups were separated by 4-15% SDS-PAGE Criterion™ TGX (Tris-Glyicine eXtended) Stain-Free™ (Bio-rad, Hercules, CAUSE). This type of gel allows a rapid acquisition of the protein run in the ultraviolet (UV) by Chemidoc™ MP imaging systems (Bio-rad, Hercules, CA, USA). Therefore, the gel, once the image has been acquired, represents the total of the loaded proteins (Total Load), which will then be used to normalize the specific proteins to be examined. After electrophoresis and gel imaging, proteins are transferred via the semi-dry TransBlot Turbo apparatus (Bio-Rad Laboratories) onto nitrocellulose membranes (Bio-Rad, Hercules, CA, USA). Nitrocellulose membranes are blocked with 3% bovine serum albumin (BSA) in a solution of Tween 20-TBS and incubated overnight at 4° C. using specific primary antibodies: p(T216)-GSK3B (1:1000, Santa Cruz, #sc-135653), p(S9)-GSK3β (1:1000, Cell Signaling, #5558S), GSK3β (1:1000 Abcam, #93926) and DYRK1A (1:1000, Cell Signaling, #8765S), MAPK44/42 (1:1000, Cell Signaling, #9102), p(Thr202/Tyr204)-MAPK44/42 (1 1000, Cell Signaling, #9101), Akt (1:2000, Bio-Rad, # vma00253K), p(S473) Akt (1:1000, Cell Signaling, #4060S). After three washes with a T-TBS buffer solution, membranes were incubated for 1 hour at room temperature with the secondary antibodies. Secondary antibodies with peroxidase activity are anti-mouse or anti-rabbit (1:5000, Bio-rad, Hercules, CA, USA). Membranes were developed using Clarity Enhanced Chemiluminescence (ECL), a chemiluminescent substrate (Bio-rad, Hercules, CA, USA) and acquired with Chemidoc Mp (Bio-rad, Hercules, CA, USA). Finally, the results obtained were analyzed using the ImageLab program (Bio-rad, Hercules, CA, USA).
In order to isolate primary hippocampal neurons, hippocampi from Ts and euploid mice were mechanically dissociated in PBS (with Ca^2+ and Mg^2−) and centrifuged (3 minutes, 1100 rpm, 25° C.). […]

Data set [3] deals with gephyrin and GABAA-R. Kind of data set: Immunofluorescence of gephyrin and GABAA-R co-localization in hippocampus CA3 and CA1. The data set is classed as in vivo, mouse. As to conditions: Ts2Cje mice, confocal microscopy.
Procedure: Brains were placed in 4% paraformaldehyde for 24 hours. Brains were then fixed over the subsequent 48 hours in a 20% sucrose solution. Brain sections were then cut to a thickness of 15 μm using a cryostat (Leica System) and stored in an aqueous solution of PBS containing 0.02% NaN3 at 4° C. until use. Slices thus obtained were mounted on slides and were blocked and permeabilized by blocking solution (10% of normal goat serum and 0.2% Triton X-100 in TBS) for 2 hours.
The following day, the same slices were incubated with a mix of fluorescent secondary antibodies, to evaluate the co-localization of the two proteins, anti-mouse Alexa Fluor 488 nm for gephyrin and anti-rabbit Alexa Fluor 594 nm for GABA α2 (1:1500, Invitrogen, Carlsbad, California, CA, USA) for 2 hours at room temperature. The slices were then washed again and incubated with DAPI nuclear marker (1:10000, Invitrogen, Carlsbad, California, CA, USA). To subtract the non-specific background signal created by the secondary antibody, some sections were incubated only with the secondary antibody. Finally, the sample was sealed with a cover slip via fluorimount (Sigma-Aldrich, St Louis, MO, USA). The acquisition and analysis of brain sections was carried out using Leica TCS SP5× confocal microscopy and ImageJ analysis software.
Data set [4] in a line: Glucose tolerance test (GTT) at end of treatment. The data set is classed as in vivo, mouse. As to conditions: Ts2Cje mice; sitagliptin 5 mM intranasal, 21 days; 6 h fasting, i.p. glucose 10%. The protocol: (§1) Finally, animals were sacrificed using cervical dislocation.
(§2) Furthermore, mice were measured at the beginning and at the end of the treatment to evaluate the length in centimeters (cm). For calculating the body mass surface, the DuBois equation was used: body surface area (m^2)=0.007184×weight ([…])×height ([…]). The body mass index was calculated as the ratio between weight and BSA (gr/m^2). At the end of the treatment, the glucose tolerance test (GTT) was carried out on the four experimental groups. After a fasting period of 6 hours, the animals' basal blood glucose was assessed with a small blood sample from the tail (T0). Subsequently, the same animals were treated with a glucose solution (10%, intraperitoneal injection) and blood glucose was measured with a glucometer (lineD ORO, Bioseven) after 30-60-90-120 minutes.

Data set [5] can be described thus: Body weight, body surface area and body mass index during treatment. The data set is classed as in vivo, mouse. To be noted: Ts2Cje mice; sitagliptin 5 mM intranasal, 21 days. The protocol: as §1, §2

On to `N[C@@H](CC(=O)N1CCn2c(nnc2C(F)(F)F)C1)Cc1cc(F)c(F)cc1F` [sitagliptin, (R)-4-oxo-4-[3-(trifluoromethyl)-5,6-dihydro[1,2,4]triazole[4,3-a]pyrazin-7(8H)-yl]-1-(2,4,5-trifluorophenyl)butan-2-amine], for which, in data set [1], the “frequency and extent of spontaneous release of neurotransmitters” value is listed as “no effect”. Besides, in data set [2], the “levels of the DYRK1A protein in Ts2Cje neurons” value was “significant reduction”. For the same compound, the “clusters of gephyrin and GABAA-R at the synaptic level” value in data set [3] is “reduction of the clusters of gephyrin and GABAA-R”. Also, the “changes in glucose metabolism indices (GTT)” value in data set [4] is “no phenotypic or morphometric changes or changes in glucose metabolism indices”. In addition, in data set [5], the “phenotypic or morphometric changes (weight, BSA, BMI)” value was “no phenotypic or morphometric changes”.
